What was measured:
[1] = test system: 26S proteasome; assay: 26S proteasome-dependent degradation of p53 in HeLa ρ^0 cells (immunoblot); type: cell-based, human; details: 7 h
Excerpt: LonP1 belongs to the AAA^+ superfamily of ATPases Associated with diverse cellular Activities, which mediate various cellular processes such as DNA replication, recombination, chromatin remodeling, ribosomal RNA processing, membrane fusion as well as ATP-dependent proteolysis ([48]). The 26S proteasome consists of the 20S proteolytic core particle, which mediates peptide bond hydrolysis and the 19S regulatory particle containing ATPases belonging to the AAA^+ family ([49]). […] We sought to test the apparent selectivity of CDDO derivatives for LonP1 but not the 26S in cultured cells. There are no known proteins that are constitutively degraded by LonP1 under baseline conditions, which would permit us to assay protease inhibition by CDDO derivatives. Therefore, we employed experimentally derived HeLa cells lacking mitochondrial DNA (mtDNA) (referred to as HeLa ρ^0 cells) ([50]), in which LonP1 constitutively degrades mitochondrial transcription factor A (TFAM) ([6]). When TFAM fails to bind mtDNA (e.g., when mtDNA is absent), it is rapidly degraded by LonP1, thus providing a readout for protease activity ([6]). An advantage of using this system is that HeLa cells express the human papillomavirus (HPV) E6 protein, which promotes constitutive degradation of p53 by the 26S proteasome. Thus, the effects of CDDO derivatives on LonP1 and the 26S proteasome can be examined in parallel.
HeLa cells devoid of mitochondrial DNA (HeLa ρ^0) and LCL cells were generated as described previously ([50]). DMEM, RPMI, and fetal bovine serum were purchased from Sigma. All cells were grown with 5% CO2 at 37 °C. LCL cells were cultured in RPMI supplemented with 15% FBS. HeLa Rho 0 cells were cultured in high glucose DMEM (25 mM) (Sigma) supplemented with sodium pyruvate ([…]) and uridine ([…]). CDDO-Me was purchased from Cayman chemicals, and CDDO-AH was synthesized as described previously ([20]). […]

[2] = biological target: T1, LonP1^R721G (Homo sapiens, UniProt P36776, R721G); assay: NADH-coupled ATPase assay, CODAS mutant LonP1^R721G; type: biochemical; details: compound 20 μM
T1 construct: hexa-histidine (N); made in house; host or cells: Rosetta 2 E. coli
T1 sequence (P36776 68-959 R721G): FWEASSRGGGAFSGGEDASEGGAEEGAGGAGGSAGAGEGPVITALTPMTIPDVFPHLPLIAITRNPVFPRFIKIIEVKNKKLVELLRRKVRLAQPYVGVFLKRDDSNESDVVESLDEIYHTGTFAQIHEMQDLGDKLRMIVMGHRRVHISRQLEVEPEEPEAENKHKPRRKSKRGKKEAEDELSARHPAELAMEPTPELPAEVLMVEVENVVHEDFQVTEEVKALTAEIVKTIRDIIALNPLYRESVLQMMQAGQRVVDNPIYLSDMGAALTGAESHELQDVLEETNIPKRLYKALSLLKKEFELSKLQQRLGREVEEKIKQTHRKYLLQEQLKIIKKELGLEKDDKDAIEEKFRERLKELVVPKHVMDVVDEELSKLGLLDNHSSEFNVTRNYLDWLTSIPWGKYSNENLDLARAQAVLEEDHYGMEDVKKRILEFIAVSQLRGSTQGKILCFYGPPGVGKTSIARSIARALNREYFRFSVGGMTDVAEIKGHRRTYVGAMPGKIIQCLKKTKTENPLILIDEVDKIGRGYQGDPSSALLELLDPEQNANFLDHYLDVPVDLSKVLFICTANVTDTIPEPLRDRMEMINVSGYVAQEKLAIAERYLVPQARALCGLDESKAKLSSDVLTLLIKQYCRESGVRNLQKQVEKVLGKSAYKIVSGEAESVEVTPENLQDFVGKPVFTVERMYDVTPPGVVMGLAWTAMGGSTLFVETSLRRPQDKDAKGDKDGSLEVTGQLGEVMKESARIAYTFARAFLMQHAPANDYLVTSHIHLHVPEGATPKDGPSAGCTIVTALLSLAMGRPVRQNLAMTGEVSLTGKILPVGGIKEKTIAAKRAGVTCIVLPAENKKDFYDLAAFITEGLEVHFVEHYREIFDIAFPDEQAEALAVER
Method: Figure 2 The ATPase activity of wild-type LonP1^WTis blocked by CDDO-Me and CDDO-anhydride by noncompetitive and competitive inhibition, respectively, whereas the CODAS mutant LonP1^R721GATPase is resistant to inhibition. ATPase activities were measured using an NADH-coupled ATPase assay. Wild type and mutant LonP1 proteins (400 nM) were pre-incubated with or without compound for 30 min at room temperature. A and E, LonP1^WT, and (H and I) comparison of LonP1^WT and LonP1^R721G. ATP was titrated and its hydrolysis was measured over 5 min (mean ± S.D., N ≥ 2). B and F, double-reciprocal Lineweaver–Burk plots (mean ± S.D., N ≥ 2). C and G, determination of Ki (mean ± S.D., N ≥ 2). D, determination of αKi (mean ± S.D., N ≥ 2). C, G and H. mean values obtained from linear regression data. CDDO, 2-cyano-3,12-dioxooleana-1,9(11)-dien-28-oic acid.
ATPase reactions (200 μl total) were performed in 96-well plates at room temperature. LonP1 (400 nM monomer) was preincubated with DMSO (1–2%) vehicle control or CDDO derivatives in buffer (50 mM HEPES-KOH pH 7.5, 5 mM magnesium acetate, 75 mM potassium acetate) for 30 to 45 min at room temperature or 30 °C. […] The change in NADH absorbance at 340 nm was monitored in Spectramax plate reader for 5 min to obtain reaction velocities. […]

SMILES: COC(=O)[C@]12CCC(C)(C)C[C@H]1[C@H]1C(=O)C=C3[C@@]4(C)C=C(C#N)C(=O)C(C)(C)[C@@H]4CC[C@@]3(C)[C@]1(C)CC2 [CDDO-Me]
- Protein levels of p53 ([1]; 1 μM): increased
- 26S proteasome-dependent degradation of p53 ([1]; 0.125 to 0.5 μM): did not block
- Inhibition of LonP1^R721G ATPase compared with LonP1^WT [2]: showed resistance

SMILES: CC1(C)CC[C@]2(C(=O)OC(=O)[C@]34CCC(C)(C)C[C@H]3[C@H]3C(=O)C=C5[C@@]6(C)C=C(C#N)C(=O)C(C)(C)[C@@H]6CC[C@@]5(C)[C@]3(C)CC4)CC[C@]3(C)[C@H](C(=O)C=C4[C@@]5(C)C=C(C#N)C(=O)C(C)(C)[C@@H]5CC[C@]43C)[C@@H]2C1 [CDDO-anhydride]
- 26S proteasome-mediated degradation of p53 ([1]; 20 μM): did not block
- Inhibition of LonP1^R721G ATPase compared with LonP1^WT [2]: showed resistance

— PMC8921294, “Inhibition of mitochondrial LonP1 protease by allosteric blockade of ATP binding and hydrolysis via CDDO and its derivatives” (The Journal of Biological Chemistry, 2022)
